The values below come from ChEMBL document CHEMBL5236670 (Bioorg Med Chem Lett, 2023).

Each structure is given as a SMILES string. The source made the active and inactive calls. The calls are words filed in the database; no cut-off is given here.

Data set [1] has as its target Glycogen synthase kinase-3 beta (Homo sapiens, UniProt P49841). Briefly: Inhibition of GSK-3beta (unknown origin) incubated for 1 hr by HTRF assay.
The nature of data set [2]: Metabolic stability in mouse liver microsomes assessed as compound remaining at 0.5 uM after 10 mins. It is filed as ADME, Microsome. The conditions noted are these: read-out: Stability.
Data set [3] in a line: Metabolic stability in rat liver microsomes assessed as compound remaining at 0.5 uM after 10 mins. In kind it is ADME, Microsome. As to conditions: read-out: Stability.
Data set [4] is described as follows: Metabolic stability in human liver microsomes assessed as compound remaining at 0.5 uM after 10 mins. It is filed as ADME, Microsome. As to conditions: read-out: Stability.
In a further data set the test system is Mus musculus. Briefly: Anti-alzheimer activity in triple-transgenic mouse model at 30 mg/kg, po. It is filed as functional, organism-based.

Glycogen synthase kinase-3 beta, sequence (P49841 whole entry): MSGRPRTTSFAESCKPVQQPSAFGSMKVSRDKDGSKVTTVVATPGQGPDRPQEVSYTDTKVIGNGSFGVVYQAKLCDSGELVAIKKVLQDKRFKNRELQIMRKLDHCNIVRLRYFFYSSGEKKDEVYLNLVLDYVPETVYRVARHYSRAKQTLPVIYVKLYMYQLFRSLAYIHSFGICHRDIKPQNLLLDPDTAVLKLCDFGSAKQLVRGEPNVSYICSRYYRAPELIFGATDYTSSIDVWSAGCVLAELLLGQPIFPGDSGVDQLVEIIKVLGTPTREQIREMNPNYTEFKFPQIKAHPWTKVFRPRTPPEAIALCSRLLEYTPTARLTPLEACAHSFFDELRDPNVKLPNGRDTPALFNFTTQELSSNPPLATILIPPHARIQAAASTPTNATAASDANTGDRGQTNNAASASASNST

In the case of `O=C(Nc1cnccc1N1CCC(F)(F)CC1)c1ccnc(NC(=O)[C@H]2C[C@@H](Cl)C2)c1`, the IC50 in data set [1] came to 0.16 nM.
Turning to `O=C(Nc1cnccc1C1CCCCC1)c1ccnc(NC(=O)C2CC2)c1`, the remaining at 10 min, 0.5 µM was determined as 0.6% in data set [2], 0.4% in data set [3] and 1% in data set [4].
For the molecule `CC(C)C(=O)Nc1cc(C(=O)Nc2cnccc2OCC(C)(F)F)ccn1`, 1.4 nM corresponded to half-maximal inhibition in data set [1] (IC50).
Regarding `O=C(Nc1cncc(-c2ccccc2)c1)c1ccnc(NC(=O)C2CC2)c1`, it took 9 nM to reach half-maximal inhibition in data set [1] (IC50).
`CC(F)C(=O)Nc1cc(C(=O)Nc2cnccc2-c2ccccc2)ccn1` (centres undefined) gave an IC50 in data set [1] of 49 nM.
As for `O=C(Nc1cnccc1C1CCCC1)c1ccnc(NC(=O)C2CC2)c1`, the remaining at 10 min, 0.5 µM stood at 0.5% in data set [2], 1% in data set [3] and 7% in data set [4].
As for `C[C@@H]1CN(c2ccncc2NC(=O)c2ccnc(NC(=O)C3CC3)c2)CCO1`, the remaining at 10 min, 0.5 µM in data set [2] turned out to be 3%; in data set [3] it was 36%; in data set [4], 56%.
In data set [1], `CC(C)C(=O)Nc1cc(C(=O)Nc2cnccc2OCCC(C)(C)O)ccn1` yielded a 50% inhibitory concentration (IC50) of 2.8 nM.
Molecule `O=C(Nc1cnccc1N1CCC(F)(F)CC1)c1ccnc(NC(=O)[C@H]2C[C@H](Cl)C2)c1` had a concentration for half-maximal inhibition (IC50) in data set [1] of 0.37 nM.
Consider `CC1(C)COCCN1c1ccncc1NC(=O)c1ccnc(NC(=O)C2CC2)c1`, for which the remaining at 10 min, 0.5 µM in data set [2] worked out at 0.4%; in data set [3] it was 0.4%; in data set [4] it was 0.9%.
On to `Cc1ccncc1NC(=O)c1ccnc(NC(=O)C2CC2)c1`, for which the remaining at 10 min, 0.5 µM came out at 82% in data set [2], 97% in data set [3] and 93% in data set [4].
In the case of `O=C(Nc1cnccc1N1CCC(F)(F)CC1)c1ccnc(NC(=O)C2CC2)c1`, the remaining at 10 min, 0.5 µM in data set [2] came out at 0.2%; in data set [3] it was 6%; in data set [4], 25%. The IC50 in data set [1] amounted to 0.19 nM.
With `C[C@H]1COCCN1c1ccncc1NC(=O)c1ccnc(NC(=O)C2CC2)c1`, the remaining at 10 min, 0.5 µM was determined as 0.2% in data set [2], 3% in data set [3] and 9% in data set [4].
As for `O=C(Nc1cncc(-c2cc(F)ccc2F)c1)c1ccnc(NC(=O)C2CC2)c1`, in data set [1], the 50% inhibitory concentration (IC50) came out at 3.7 nM.
For the molecule `CC(C)c1ccncc1NC(=O)c1ccnc(NC(=O)C2CC2)c1`, the remaining at 10 min, 0.5 µM in data set [2] turned out to be 14%; in data set [3] it was 78%; in data set [4], 87%.
Consider `CC(C)(O)c1ccncc1NC(=O)c1ccnc(NC(=O)C2CC2)c1`, for which the remaining at 10 min, 0.5 µM turned out to be 27% in data set [2], 100% in data set [3] and 87% in data set [4]. The molecule also yielded a concentration for half-maximal inhibition (IC50) in data set [1] of 0.1 nM.
In the case of `C[C@H]1CN(c2ccncc2NC(=O)c2ccnc(NC(=O)C3CC3)c2)CCO1`, the remaining at 10 min, 0.5 µM in data set [2] was 1%; in data set [3], 40%; in data set [4] it was 66%.
Take `CC1(C)CN(c2ccncc2NC(=O)c2ccnc(NC(=O)C3CC3)c2)CCO1`: the remaining at 10 min, 0.5 µM in data set [2] came out at 0.4%; in data set [3], 16%; in data set [4], 35%.
Take `C[C@@H]1COCCN1c1ccncc1NC(=O)c1ccnc(NC(=O)C2CC2)c1`: the remaining at 10 min, 0.5 µM in data set [2] came out at 0.2%; in data set [3], 1%; in data set [4], 4%.
On to `O=C(Nc1cnccc1C(F)(F)F)c1ccnc(NC(=O)C2CC2)c1`, for which the remaining at 10 min, 0.5 µM in data set [2] came out at 86%; in data set [3] it was 100%; in data set [4] it was 99%.
In data set [1], `O=C(Nc1cnccc1-c1ccccc1)c1ccnc(NC(=O)C2CCOCC2)c1` showed an IC50 of 4.5 nM.
In turn, `O=C(Nc1cnccc1-c1ccccc1)c1ccnc(NC(=O)C2CCCC2)c1` came in with a 50% inhibitory concentration (IC50) in data set [1] of 2.1 nM.
In the case of `O=C(Nc1cncc(-c2ccccc2F)c1)c1ccnc(NC(=O)C2CC2)c1`, the remaining at 10 min, 0.5 µM was found to be 90% in data set [2] and 88% in data set [4]. Further, in data set [1], the IC50 is 3 nM. For the same molecule, the outcome with Mus musculus was inactive.
For the molecule `C[C@@H]1CN(c2ccncc2NC(=O)c2ccnc(NC(=O)C3CC3)c2)C[C@H](C)O1`, the figures for the remaining at 10 min, 0.5 µM in data set [2], in data set [3] and in data set [4] were 4%, 26% and 34%, respectively.
For `O=C(Nc1cncc(-c2cccc(F)c2F)c1)c1ccnc(NC(=O)C2CCC(F)(F)C2)c1` (centres undefined), in data set [1], half-maximal inhibition (IC50) required 2.5 nM.
In data set [1], `O=C(Nc1cncc(-c2cccc(F)c2F)c1)c1ccnc(NC(=O)C2CC2)c1` registered an IC50 of 2.6 nM.
Still for that read-out and setting: to `O=C(Nc1cnccc1-c1ccc(Cl)cc1)c1ccnc(NC(=O)[C@H]2C[C@H](F)C2)c1` belongs 1.7 nM; to `O=C(Nc1cnccc1-c1ccccc1)c1ccnc(NC(=O)C2CCC2)c1`, 5.7 nM.
On to `CC(O)c1ccncc1NC(=O)c1ccnc(NC(=O)C2CC2)c1` (centres undefined), for which the figures for the remaining at 10 min, 0.5 µM in data set [2], in data set [3] and in data set [4] were 77%, 100% and 100%, respectively.
`O=C(Nc1cnccc1N1CCOCC1)c1ccnc(NC(=O)C2CC2)c1`: the remaining at 10 min, 0.5 µM in data set [2] was found to be 2%; in data set [3] it was 63%; in data set [4] it was 84%.
Take `O=C(Nc1cnccc1C(=O)C(F)(F)F)c1ccnc(NC(=O)C2CC2)c1`: the remaining at 10 min, 0.5 µM in data set [2] was 57%; in data set [3], 79%; in data set [4] it was 85%.
The corresponding values for `O=C(Nc1cnccc1C1CCC1)c1ccnc(NC(=O)C2CC2)c1` are 1%, 43% and 72%.
For `C=C(C)c1ccncc1NC(=O)c1ccnc(NC(=O)C2CC2)c1`, the remaining at 10 min, 0.5 µM in data set [2] was 3%; in data set [3] it was 57%; in data set [4], 88%.
Take `O=C(Nc1cnccc1N1CCCCC1)c1ccnc(NC(=O)C2CC2)c1`: the remaining at 10 min, 0.5 µM in data set [2] is 1%; in data set [3] it was 6%; in data set [4], 17%.
`O=C(Nc1cnccc1-c1ccc(Cl)cc1)c1ccnc(NC(=O)[C@H]2C[C@@H](F)C2)c1` registered a concentration for half-maximal inhibition (IC50) in data set [1] of 6.9 nM.
For the molecule `O=C(Nc1cnccc1C(O)C(F)(F)F)c1ccnc(NC(=O)C2CC2)c1` (centres undefined), the remaining at 10 min, 0.5 µM in data set [2] came to 35%; in data set [3] it was 82%; in data set [4] it was 86%. Further, the IC50 in data set [1] stood at 3.6 nM.
